Test results published in PubChem BioAssay (NCI).
Values joined by “and” are separate entries in the source; they are usually repeats but may differ in a detail not shown here. Identical values can stand only once.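 Each compound was tested at five concentrations against cells in 96-well plates for 48 hours. GI50 marks 50% less growth. TGI marks complete inhibition of growth.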 Where a SMILES comes first, the peptide text is derived from it. [ ]: non-standard residue; d: D form. The star is where a group is joined. Bn2Val = CC(C)[C@@H](C(=O)*)N(Cc1ccccc1)Cc1ccccc1; NMeV = CN[C@H](C(=O)O)C(C)C; X29 = COc1ccc(CN*)c(OC)c1; dNMeA = CN[C@H](C)C(=O)O; Boc = CC(C)(C)OC(=O)*; OBn = c1ccc(CO*)cc1

What was measured:
Assay in all cases: DTP human tumour cell line panel, 48 h
CCRF-CEM leukemia = test system: CCRF-CEM leukemia
HOP-92 NSCLC = test system: HOP-92 NSCLC
MCF7 breast = test system: MCF7 breast
MDA-MB-231 breast = test system: MDA-MB-231 breast
OVCAR-3 ovarian = test system: OVCAR-3 ovarian
OVCAR-4 ovarian = test system: OVCAR-4 ovarian
SF-539 CNS = test system: SF-539 CNS
SN12C renal = test system: SN12C renal
T-47D breast = test system: T-47D breast
UACC-62 melanoma = test system: UACC-62 melanoma

SMILES	TGI (CCRF-CEM leukemia)	TGI (HOP-92 NSCLC)	TGI (MCF7 breast)	TGI (MDA-MB-231 breast)	TGI (OVCAR-3 ovarian)	TGI (OVCAR-4 ovarian)	TGI (SF-539 CNS)	TGI (SN12C renal)	TGI (T-47D breast)	TGI (UACC-62 melanoma)	GI50 (CCRF-CEM leukemia)	GI50 (HOP-92 NSCLC)	GI50 (MCF7 breast)	GI50 (MDA-MB-231 breast)	GI50 (OVCAR-3 ovarian)	GI50 (OVCAR-4 ovarian)	GI50 (SF-539 CNS)	GI50 (SN12C renal)	GI50 (T-47D breast)	GI50 (UACC-62 melanoma)
COC(=O)c1c(C)cccc1C1CN=NC12Cc1ccc(C)c(C)c1C2=O (configuration not stated)	> 100 µM	> 100 µM	> 100 µM	> 100 µM	> 100 µM	> 100 µM	> 100 µM	> 100 µM	13.1 µM	57.9 µM										
CC(C)=CCOc1cc(NC(=S)c2ccsc2C)ccc1Cl	> 100 µM	37.1 µM	> 100 µM	83.4 µM	> 100 µM	> 100 µM	> 100 µM	> 100 µM	> 100 µM	> 100 µM										
Cc1nc2n(c1/C=C1/C(=O)Nc3ccccc31)CCS2	> 100 µM	> 100 µM	> 100 µM	> 100 µM	> 100 µM	> 100 µM	> 100 µM	> 100 µM	> 100 µM	> 100 µM										
C[N+](C)(C)C=Nc1cccc2c1CCCC2	> 100 µM	> 100 µM	> 100 µM	> 100 µM	> 100 µM	> 100 µM	> 100 µM	> 100 µM	> 100 µM	> 100 µM										
CC(C)(O)C1CC[C@]2(C)[C@H]3CC[C@@H]4[C@@]5(C)CCCC(C)(C)[C@@H]5CC[C@@]4(C)[C@]3(C)CC[C@@H]12 (some centres not stated)	> 100 µM	> 100 µM	> 100 µM	> 100 µM	> 100 µM	> 100 µM	> 100 µM	> 100 µM	> 100 µM	> 100 µM										
CC(=O)NC1=C(NCCCl)C(=O)c2ccccc2C1=O	66 µM	> 100 µM	> 100 µM	> 100 µM	> 100 µM	> 100 µM	> 100 µM	> 100 µM	84.1 µM	42.9 µM										
Cc1ccc(S(=O)(=O)[C@@H](Cl)[C@H]2N=C(Cl)NN=C2c2ccccc2)cc1	75 µM	54.3 µM	89.6 µM	46.6 µM	31.3 µM	36.6 µM	61.1 µM	54 µM	> 100 µM	44 µM										
COc1ccc(C(Cc2ccccc2)C2NC(=S)NC2=O)cc1 (configuration not stated)	> 25 µM	> 25 µM	> 25 µM	> 25 µM	> 25 µM	> 25 µM	> 25 µM	> 25 µM	> 25 µM											
Cn1c([C@H](C#N)C(=O)c2cc(O)ccc2[N+](=O)[O-])nc2ccccc21	> 100 µM	> 100 µM	> 100 µM	> 100 µM	> 100 µM	> 100 µM	> 100 µM	> 100 µM	> 100 µM	> 100 µM										
CC(C)(C)CC(C)(C)NC(=S)NO	> 100 µM	> 100 µM	> 100 µM	> 100 µM	> 100 µM	> 100 µM	> 100 µM	> 100 µM	> 100 µM	> 100 µM										
Cc1nnc2n(c1=O)CCN2C	> 100 µM	> 100 µM	> 100 µM	> 100 µM	> 100 µM	> 100 µM	> 100 µM	> 100 µM	> 100 µM	> 100 µM										
CCOC(=O)C(NC(=O)CC)(Nc1ccc(S(=O)(=O)Nc2onc(C)c2C)cc1)C(F)(F)F (configuration not stated)	> 100 µM	> 100 µM	> 100 µM	> 100 µM	> 100 µM	> 100 µM	> 100 µM	> 100 µM	> 100 µM	> 100 µM										
O=S(=O)(O)c1cccc2cccc(N=Nc3c(O)ccc4ccccc34)c12	> 100 µM	> 100 µM	> 100 µM	> 100 µM	> 100 µM	> 100 µM	> 100 µM	> 100 µM	> 100 µM	> 100 µM										
CN(C(=O)c1ccc2c(c1)sc1c(=O)n(C)c3ccccc3c12)c1ccccc1	> 100 µM	> 100 µM	> 100 µM	> 100 µM	> 100 µM	> 100 µM	> 100 µM	> 100 µM	> 100 µM	> 100 µM										
CC12CCCCC1=[N+]([O-])C(C)(C)N2O (configuration not stated)	> 100 µM	> 100 µM	> 100 µM	> 100 µM	> 100 µM	> 100 µM	> 100 µM	> 100 µM	> 100 µM	> 100 µM										
Cc1c(OCc2ccccc2)c(=O)ccn1CCc1c[nH]c2ccccc12	> 100 µM	51.3 µM	42.9 µM	> 100 µM	51.4 µM		> 100 µM	> 100 µM	58.1 µM	87.3 µM										

SMILES	TGI (CCRF-CEM leukemia)	TGI (HOP-92 NSCLC)	TGI (MCF7 breast)	TGI (MDA-MB-231 breast)	TGI (OVCAR-3 ovarian)	TGI (OVCAR-4 ovarian)	TGI (SF-539 CNS)	TGI (SN12C renal)	TGI (T-47D breast)	TGI (UACC-62 melanoma)	GI50 (CCRF-CEM leukemia)	GI50 (HOP-92 NSCLC)	GI50 (MCF7 breast)	GI50 (MDA-MB-231 breast)	GI50 (OVCAR-3 ovarian)	GI50 (OVCAR-4 ovarian)	GI50 (SF-539 CNS)	GI50 (SN12C renal)	GI50 (T-47D breast)	GI50 (UACC-62 melanoma)
COC(=O)c1c(CC(Cc2ccc3c(c2)CCCC3)C(=O)OC)ccc2c1CCCC2 (configuration not stated)	> 100 µM	> 100 µM	> 100 µM	> 100 µM	> 100 µM	45.1 µM	> 100 µM	> 100 µM	> 100 µM	> 100 µM										
CC(C)CC(NC(=O)OC(C)(C)C)C(=O)NC(CC(=O)OCc1ccccc1)C(=O)OCc1ccccc1 (stereo not drawn) (Boc-Leu-Asp(OBn)-OBn; configuration not given here)	> 100 µM	> 100 µM	> 100 µM	> 100 µM	49.6 µM		96.7 µM	50.9 µM	> 100 µM	45.9 µM										
O=C1CC(C(OCc2ccccc2)C(OCc2ccccc2)C(COCc2ccccc2)OCc2ccccc2)CC(=O)N1 (configuration not stated)	80.4 µM and > 75 µM	> 100 µM	> 100 µM	> 100 µM		> 100 µM	> 100 µM	> 100 µM	65.6 µM		19.4 µM and 64.4 µM	90.7 µM and 30.3 µM								
COc1ccc(/C=C/C(=O)c2ccc(-n3cc(CN4CCN(c5cc6c(cc5F)c(=O)c(C(=O)O)cn6C5CC5)CC4)nn3)cc2)cc1OC	> 100 µM	38.3 µM	> 100 µM	> 100 µM	4.93 µM	15.5 µM	4.39 µM	10 µM	> 100 µM	8.84 µM	2.63 µM	11.7 µM	0.396 µM	3.2 µM	1.84 µM	3.94 µM	1.91 µM	2.66 µM	3.16 µM	2.83 µM
COc1ccc(C2OCCN2C)cc1 (configuration not stated)	> 100 µM	> 100 µM	> 100 µM	> 100 µM	> 100 µM	> 100 µM	> 100 µM		> 100 µM	> 100 µM										
OCC(CCc1ccccc1I)C1=CCC2(CC1)OCCO2 (configuration not stated)	35.7 µM	28.6 µM	55.1 µM	62.9 µM	41.3 µM	69.9 µM	32.5 µM		42.3 µM	35.6 µM										
Cc1ccc(NC2=NCCO2)c2c1CCC2	> 100 µM	70 µM	> 100 µM	69.4 µM	67.9 µM	> 100 µM	56 µM	> 100 µM	> 100 µM	> 100 µM										
CCOc1ccc(N=NC2C(=O)N(C(=O)CC(=O)Nc3ccccc3)N=C2C)cc1 (configuration not stated)	> 100 µM	90.7 µM	> 100 µM	> 100 µM	> 100 µM	> 100 µM	> 100 µM	> 100 µM	> 100 µM	> 100 µM										
Oc1ccccc1C1C=C(c2ccccc2)NC(N2CCCCC2)=C1c1nc2ccccc2[nH]1 (configuration not stated)	47.7 µM	26.9 µM	24.9 µM	24.4 µM	29.8 µM	30.7 µM	29.7 µM	29.7 µM	40.4 µM	29.8 µM										
Cc1ccc(-c2cc(O)c3nc4ccccc4n3c2)cc1	> 100 µM	> 100 µM	> 100 µM	> 100 µM	> 100 µM	> 100 µM	> 100 µM	> 100 µM	> 100 µM	> 100 µM										
O=CC(O)C(O)C(O)C1CNC(=S)O1 (configuration not stated)	> 100 µM	> 100 µM	> 100 µM	> 100 µM	> 100 µM	> 100 µM	> 100 µM	> 100 µM	> 100 µM	> 100 µM										
COc1ccc(CNC(=O)[C@@H]2CCCN2C(=O)[C@@H](C)N(C)C(=O)[C@H](C(C)C)N(C)C(=O)[C@@H](NC(=O)[C@H](C(C)C)N(Cc2ccccc2)Cc2ccccc2)C(C)C)c(OC)c1 (Bn2Val-V[NMeV][dNMeA]P-X29)		9.1 µM	12 µM	3.46 µM	14.7 µM	14.4 µM	4.69 µM	3.25 µM	96 µM	15.4 µM										
CC1(C)C(CCO)CC1n1ccc(=O)[nH]c1=O (configuration not stated)	> 100 µM	> 100 µM	> 100 µM	> 100 µM	> 100 µM	> 100 µM	> 100 µM	> 100 µM	> 100 µM	> 100 µM										
Nc1nccc(NCC2(CO)CCC2)n1	> 100 µM	> 100 µM	> 100 µM	> 100 µM	> 100 µM		> 100 µM	> 100 µM	> 100 µM	> 100 µM										
NC(Cc1c[nH]c2cc([N+](=O)[O-])ccc12)C(=O)O (configuration not stated)		> 100 µM	> 100 µM	> 100 µM	> 100 µM	> 100 µM	> 100 µM	> 100 µM	> 100 µM	> 100 µM										
CC(=O)OC1C2CCC3C(C)(O)C4CC(O)C(C)(C)C4(O)C(O)CC13CC2(C)O (configuration not stated)	> 100 µM	> 100 µM	> 100 µM	> 100 µM	> 100 µM	> 100 µM	> 100 µM	> 100 µM	> 100 µM	> 100 µM										
